Test results from patent US6365550B1, “Flufenacet-based herbicidal compositions” (Bayer Aktiengesellschaft, priority 1999, dated 2002).

Key:
Test in all cases: Post-emergence test/greenhouse
Type in all cases: in vivo
Settings in all cases: scored after three weeks vs untreated control
Apera spica-venti = system: Apera spica-venti
Method: (§1) Commercial formulations of the active compounds involved were used. The active compound concentrations required for the experiments were prepared by dilution with water.
(§2) Test plants which have a height of 5 to 15 cm are sprayed with the active compound preparation in such a way that the amounts of active compound desired in each case are applied per unit area. The concentration of the spray mixture is chosen in such a way that the amounts of active compound desired in each case are applied in 500 l water/ha.
(§3) After three weeks, the degree of damage to the plants is scored in % damage in comparison with the development of the untreated control.
(§4) The figures denote the following:
(§5) 0%=no action (like untreated control)

Alopercurus myosuroides = system: Alopercurus myosuroides
Method: as §1, §2, §3, §4, §5

Echinochloa crus-galli = system: Echinochloa crus-galli
Method: as §1, §2, §3, §4, §5

Chenopodium album = system: Chenopodium album
Method: as §1, §2, §3, §4, §5

| SMILES | % damage Apera spica-venti (Apera spica-venti; application rate 30 g a.i./ha) | % damage Alopercurus myosuroides (Alopercurus myosuroides; application rate 30 g a.i./ha) | % damage Echinochloa crus-galli (Echinochloa crus-galli; application rate 30 g a.i./ha) | % damage Chenopodium album (Chenopodium album; application rate 30 g a.i./ha) | % damage Apera spica-venti (Apera spica-venti; application rate 60 g a.i./ha) | % damage Alopercurus myosuroides (Alopercurus myosuroides; application rate 60 g a.i./ha) | % damage Echinochloa crus-galli (Echinochloa crus-galli; application rate 60 g a.i./ha) | % damage Chenopodium album (Chenopodium album; application rate 60 g a.i./ha) |
| --- | --- | --- | --- | --- | --- | --- | --- | --- |
| CC(C)N.O=C(O)CNCP(=O)(O)O [(II-1), N-phosphonomethyl-glycine i-propyl-ammonium salt] | 0% | 0% | 0% | 0% |  |  |  |  |
| CC(C)N(C(=O)COc1nnc(C(F)(F)F)s1)c1ccc(F)cc1 [(I), N-(4fluoro-phenyl)-N-(i-propyl)-2-(5-trifluoromethyl-1,3,4-thiadiazol-2-yl-oxy)-acetamide] |  |  |  |  | 60% | 60% | 60% | 0% |
